Here are results for two substances from patent US20250009819A1, “NOVEL PROBIOTICS AND USE THEREOF” (PBLBIOLAB CO., LTD., priority 2021, published 2025).

The experiment has as its system immunosuppressed animals induced by anticancer drug (cyclophosphamide). Put plainly: Immunosuppressed animals induced by cyclophosphamide: colitis improvement (colon). The class given is in vivo, C57BL/6 male mice. The conditions noted are these: cyclophosphamide (CP)-treated mice, 1×10^9 CFU/mouse orally once a day for 5 days. On the procedure:
To 100 mg of colon tissue, 200 μl of 10 mM potassium phosphate buffer (pH 7.0) containing 0.5% hexadecyl trimethyl ammonium bromide was added and homogenized. Then, the supernatant was obtained by centrifugation for 10 minutes at 4° C. and 10,000 g. A volume of 50 μl of the supernatant was added to 0.95 mk of reaction solution (containing 1.6 mM tetramethyl benzidine and 0.1 mM H2O2), reacted at 37° C., and absorbance was monitored over time at 650 nm.
Hippocampus, colon, and spleen tissues were homogenized by adding 1 ml of RIPA buffer (Gibco) containing protease inhibitor cocktail and centrifuged at 4° C., 13000 rpm for 15 min to obtain supernatant. Indicators of this supernatant were measured using an ELISA kit (Ebioscience).
C57BL/6 male mice (5 weeks old, 19-21 g) were divided (6 mice in each group) and acclimatized to the laboratory for 1 week. To induce intestinal and brain diseases, the mice were administered with cyclophosphamide (CP, 150 mg/kg, dissolved in physiological saline) for 1 day, rested for 1 day, and then administered intraperitoneally the next day. Meanwhile, the normal group was administered intraperitoneally with 0.1 ml of physiological saline. […] The day following the conclusion of sample administration, the experimental animals were sacrificed, and samples from the brain hippocampus, colon, and spleen were collected. In the Hippocampus, inflammatory indicators, such as IFN-γ, TNF-α, and IL-10, were measured using ELISA. In the colon, intestinal length and inflammatory indicators, such as IFN-γ, TNF-α, and IL-10, were measured. In the spleen, Th1 cells and Treg cells were measured by FACS (Fluorescence-Activated Cell Sorting).

As to Bifidobacterium longum NK219, the “Colon (cm)” value was determined as 4.95 cm, the IFN-γ/IL-10 came to 3.32, the IL-10 came out at 13.00 pg/mg and the “Interferon (IFN)-γ” value is recorded as 38.64 pg/mg. In addition, the MPO activity is listed as 4.62 μUnit/mg, the TNF-a/IL-10 amounted to 2.12 and the TNF-α was 26.73 pg/mg.

As to Lactobacillus rhamnosus NK210, the “Colon (cm)” value is given as 4.98 cm, the IFN-γ/IL-10 is recorded as 3.05, the IL-10 came to 9.65 pg/mg and the “Interferon (IFN)-γ” value amounted to 28.79 pg/mg. In addition, the MPO activity turned out to be 4.79 μUnit/mg, the TNF-a/IL-10 was determined as 2.19 and the TNF-α is 20.60 pg/mg.
